What was measured:
[1] = test system: endothelium-denuded aortic rings (GC-A mediated); assay: Aortic ring relaxation, endothelium-denuded rings pre-contracted with 40 mM KCl (Example 3); design: species or system rat; conditions: endothelium-denuded rat aortas pre-contracted with 40 mM KCl; peptide 0.1 μM
Procedure: (§1) Male Sprague Dawley rats were killed and the descending thoracic aorta rapidly removed and flushed with physiological solution. After being cleared of adhering fat and connective tissue, 5 mm rings were mounted under 10 g resting tension, between two stainless steel hooks, in organ baths (37° C.) containing carbogenated (95% O2 and 5% CO2) physiological salt solution of the following composition (mM): NaCl, 118.4; NaHCO3, 25; glucose, 11; KCl, 4.7; MgSO4, 1.2; KH2PO4, 1.2 and CaCl2, 2.5. The lower hook was attached to a tissue holder and the upper hook to a force displacement transducer (Grass FTO3). Where indicated endothelial cells were removed by gentle rubbing of the intimal surface with a wire. To confirm the presence or absence of endothelial cells, tissues were precontracted with a sub-maximal concentration of phenylephrine (0.3 μM) and the response to acetylcholine (ACh, 10 μM) observed. Ach-induced relaxation greater than 80% of maximum indicated the presence of endothelium; whereas Ach-induced relaxation less than 10% indicated the absence of endothelium. Ring preparations under resting tension were conditioned by two contraction/relaxation cycles with 40 mM KCl, contracted by a third application of 40 mM KCl and then relaxed with different doses of the venom peptides. Responses were expressed as a percentage relaxation of the precontraction by KCl.

[2] = target: T1, Natriuretic Peptide Receptor-A (NPR-A) signaling in MDCK cells (Canis lupus familiaris, UniProt A0A8I3MHU3); assay type: cell-based, canine; conditions: stimulation of cGMP accumulation in MDCK cells
T1 sequence (A0A8I3MHU3 32-1060): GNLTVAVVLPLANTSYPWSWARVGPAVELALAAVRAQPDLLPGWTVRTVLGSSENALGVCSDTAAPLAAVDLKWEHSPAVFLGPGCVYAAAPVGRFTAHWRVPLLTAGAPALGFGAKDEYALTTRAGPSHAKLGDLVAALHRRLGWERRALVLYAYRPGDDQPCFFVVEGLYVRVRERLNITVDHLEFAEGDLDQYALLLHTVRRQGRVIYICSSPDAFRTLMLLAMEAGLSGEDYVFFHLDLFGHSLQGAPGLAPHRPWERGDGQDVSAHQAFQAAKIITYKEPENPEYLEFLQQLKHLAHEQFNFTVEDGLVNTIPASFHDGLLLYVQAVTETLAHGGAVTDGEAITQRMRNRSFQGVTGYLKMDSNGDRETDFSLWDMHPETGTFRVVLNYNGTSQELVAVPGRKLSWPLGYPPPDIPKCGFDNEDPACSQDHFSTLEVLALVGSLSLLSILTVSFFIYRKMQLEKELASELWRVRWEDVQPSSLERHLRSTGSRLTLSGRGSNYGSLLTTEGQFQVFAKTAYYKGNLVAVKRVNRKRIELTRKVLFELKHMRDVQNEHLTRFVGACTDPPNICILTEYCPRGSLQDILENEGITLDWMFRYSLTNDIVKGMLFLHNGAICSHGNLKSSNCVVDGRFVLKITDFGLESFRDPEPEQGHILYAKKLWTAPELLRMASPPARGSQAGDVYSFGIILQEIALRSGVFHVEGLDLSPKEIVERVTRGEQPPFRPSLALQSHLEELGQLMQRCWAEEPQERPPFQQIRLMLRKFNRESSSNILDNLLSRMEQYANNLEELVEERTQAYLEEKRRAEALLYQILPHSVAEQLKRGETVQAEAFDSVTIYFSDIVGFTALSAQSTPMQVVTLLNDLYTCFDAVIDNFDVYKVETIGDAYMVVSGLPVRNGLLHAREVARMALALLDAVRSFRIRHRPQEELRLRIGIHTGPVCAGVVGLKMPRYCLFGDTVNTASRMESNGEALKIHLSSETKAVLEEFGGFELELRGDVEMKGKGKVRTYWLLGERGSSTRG

[3] = target: T2, Plasmin (Homo sapiens, UniProt P00747); assay: Stability to enzymatic degradation by plasmin (Examples 7, 16); assay type: in vitro ADME; conditions: plasmin, 37° C.
T2 construct: with 500 ng Endopeptidase (NEP) or 10 μg Plasmin
How it was run: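 Peptide (100 μl of 500 μM) was incubated at 37 °C in 100 mM Tris/HCl, 150 mM NaCl, pH 7.2-7.4 with 500 ng NEP or 10 μg plasmin. Samples were taken from 5 min to 24 h and heat-quenched at 100 °C for 4 min. Remaining peptide was measured by RP-HPLC.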

[4] = test system: endothelium-intact aortic rings (NPR-C mediated); assay: Aortic ring relaxation, endothelium-intact rings pre-contracted with 40 mM KCl (Example 3); design: species or system rat; conditions: endothelium-intact rat aortas pre-contracted with 40 mM KCl; peptide 0.1 μM
Procedure: as §1

[5] = test system: conscious rabbits; assay: Blood pressure and heart rate in conscious rabbits, intravenous infusion dose-response (Example 8); design: Systolic BP, mean difference / Diastolic BP, mean difference / Mean BP, mean difference / HR, mean difference: dose or concentration left out as unconfirmed; conditions: for Diastolic BP, mean difference from control / HR, mean difference from control / Mean BP, mean difference from control / Systolic BP, mean difference from control: 45 min
[6] = Table 9B, average of doses 1, 2, 4
[7] = average of the 3 doses 1.0, 2.0, 4.0 μg/kg/min

T2 sequence (P00747 97-580 partner limits assumed, species assumed): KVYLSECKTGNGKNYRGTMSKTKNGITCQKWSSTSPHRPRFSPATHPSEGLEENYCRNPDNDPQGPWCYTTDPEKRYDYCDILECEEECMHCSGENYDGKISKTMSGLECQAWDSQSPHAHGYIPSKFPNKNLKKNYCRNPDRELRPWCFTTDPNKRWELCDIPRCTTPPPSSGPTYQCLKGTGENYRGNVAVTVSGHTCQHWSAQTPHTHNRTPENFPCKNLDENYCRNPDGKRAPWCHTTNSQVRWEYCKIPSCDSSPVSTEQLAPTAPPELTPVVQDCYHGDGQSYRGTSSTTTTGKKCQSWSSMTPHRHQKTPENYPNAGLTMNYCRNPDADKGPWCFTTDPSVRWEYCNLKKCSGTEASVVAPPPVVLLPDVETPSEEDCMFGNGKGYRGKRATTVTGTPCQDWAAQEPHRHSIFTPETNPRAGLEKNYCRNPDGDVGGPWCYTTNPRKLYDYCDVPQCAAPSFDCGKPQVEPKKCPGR
T2 sequence (P00747 581-810 limits assumed, species assumed): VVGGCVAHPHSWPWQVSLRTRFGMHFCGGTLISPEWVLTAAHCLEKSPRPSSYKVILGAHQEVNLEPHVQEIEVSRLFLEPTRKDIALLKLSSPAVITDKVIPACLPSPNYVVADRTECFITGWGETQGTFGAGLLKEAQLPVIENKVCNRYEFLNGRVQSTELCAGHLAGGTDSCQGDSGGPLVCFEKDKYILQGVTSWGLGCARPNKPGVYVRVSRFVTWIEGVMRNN

CC[C@H](C)[C@@H]1NC(=O)[C@H](CCCNC(=N)N)NC(=O)[C@H](CC(=O)O)NC(=O)[C@H](CCSC)NC(=O)[C@H](CCCNC(=N)N)NC(=O)CNC(=O)CNC(=O)[C@H](Cc2ccccc2)NC(=O)[C@@H](NC(=O)[C@H](CO)NC(=O)[C@H](CO)NC(=O)[C@H](CCCNC(=N)N)NC(=O)[C@H](CCCNC(=N)N)NC(=O)[C@H](CC(C)C)NC(=O)[C@@H](N)CO)CSSC[C@@H](C(=O)N[C@@H](CC(N)=O)C(=O)N[C@@H](CO)C(=O)N[C@@H](Cc2ccccc2)C(=O)N[C@@H](CCCNC(=N)N)C(=O)N[C@@H](Cc2ccc(O)cc2)C(=O)O)NC(=O)CNC(=O)[C@H](CC(C)C)NC(=O)CNC(=O)[C@H](CO)NC(=O)[C@H](CCC(N)=O)NC(=O)[C@H](C)NC(=O)CNC1=O [hANP, reference compound]
percentage relaxation of the precontraction by KCl [1]: ~100%
−Log10 EC50 (pEC50) ± Standard Error [2]: 8.792 ± 0.2718
EC50 ([2]; read-out: EC50 (M) ± Standard Error): 1.64e-08 M
half-life at 125 μM ([3]; plasmin in Tris/HCl-NaCl buffer, read-out: HalfLife in plasmin): 2.03 min
K (one phase exponential decay, best fit values) [3]: 0.3413
PLATEAU (one phase exponential decay, best fit values) [3]: 0.04207
SPAN (one phase exponential decay, best fit values) [3]: 0.9579
percentage relaxation of the precontraction by KCl [4]: ~100%
Diastolic BP, mean difference ([5]; Table 9B, Dose 1): −9.7 mmHg
HR, mean difference ([5]; Table 9B, Dose 1): 17 bpm
Mean BP, mean difference ([5]; Table 9B, Dose 1): −13.1 mmHg
Systolic BP, mean difference ([5]; Table 9B, Dose 1): −10.6 mmHg
Diastolic BP, mean difference ([5]; Table 9B, Dose 2): −12.3 mmHg
HR, mean difference ([5]; Table 9B, Dose 2): 19 bpm
Mean BP, mean difference ([5]; Table 9B, Dose 2): −15.7 mmHg
Systolic BP, mean difference ([5]; Table 9B, Dose 2): −13.0 mmHg
Diastolic BP, mean difference ([5]; Table 9B, Dose 4): −14.4 mmHg
HR, mean difference ([5]; Table 9B, Dose 4): 9 bpm
Mean BP, mean difference ([5]; Table 9B, Dose 4): −18.5 mmHg
Systolic BP, mean difference ([5]; Table 9B, Dose 4): −14.5 mmHg
Diastolic BP, Average Response SED [5, 6]: −12.1 ± 0.8 mmHg
HR, Average Response SED [5, 6]: 15 ± 3 bpm
Systolic BP, Average Response SED [5, 6]: −12.7 ± 0.9 mmHg
Recovery (MAP) ([5]; after 1 hour recovery period, Table 10A): 59.2 mm Hg
Recovery Delta SED (MAP) ([5]; after 1 hour recovery period, Table 10A, listed as WT-hANP): 5.0±1.2 mm Hg
Diastolic BP, Average Response SED [5, 7]: −12.1 ± 0.8 mmHg
HR, Average Response SED [5, 7]: 15.1 ± 3.2 bpm
Systolic BP, Average Response SED [5, 7]: −12.7 ± 0.9 mmHg
MAP at final dose ([5]; highest dose, Table 10A): 54.2 mm Hg
Treatment Effect, change of mean blood pressure during the infusion ([5]; highest dose, Table 10A, groups 1, 2A and 3): −18.5 mm Hg
Diastolic BP, mean difference from control ([5]; i.v. infusion 1.0 μg/kg/min): −9.7 mmHg
HR, mean difference from control ([5]; i.v. infusion 1.0 μg/kg/min): 17.1 bpm
Mean BP, mean difference from control ([5]; i.v. infusion 1.0 μg/kg/min): −13.1 mmHg
Systolic BP, mean difference from control ([5]; i.v. infusion 1.0 μg/kg/min): −10.6 mmHg
Diastolic BP, mean difference from control ([5]; i.v. infusion 2.0 μg/kg/min): −12.3 mmHg
HR, mean difference from control ([5]; i.v. infusion 2.0 μg/kg/min): 19.0 bpm
Mean BP, mean difference from control ([5]; i.v. infusion 2.0 μg/kg/min): −15.7 mmHg
Systolic BP, mean difference from control ([5]; i.v. infusion 2.0 μg/kg/min): −13.0 mmHg
Diastolic BP, mean difference from control ([5]; i.v. infusion 4.0 μg/kg/min): −14.4 mmHg
HR, mean difference from control ([5]; i.v. infusion 4.0 μg/kg/min): 9.0 bpm
Mean BP, mean difference from control ([5]; i.v. infusion 4.0 μg/kg/min): −18.5 mmHg
Systolic BP, mean difference from control ([5]; i.v. infusion 4.0 μg/kg/min): −14.5 mmHg

— US8058242B2, “Chimeric proteins with natriuretic activity” (The University of Queensland, priority 2004, dated 2011)
